Key:
Sprague Dawley rats = assay: Novel object recognition test, naive animals, 4 h ITI; type: in vivo, rat; settings: 10 mg/kg subcutaneously immediately after T1
Excerpt: Cognitive dysfunction, including impaired recognition memory, are common features in depressed patients (Egeland et al., Scand. J. Psychol. 2005). The present experiment explored the ability of 3-methoxy-PREG (43B) administration to increase recognition memory retention in naive animals and to recover recognition memory deficits in animals submitted to the social isolation protocol. Rearing rats in isolation from the time of weaning and throughout adulthood can induce a series of hippocampal structural and molecular deficits paralled by behavioural alterations resembling a depressive-like state (Weiss and Feldon, Psychopharmacology 2001; Bianchi et al., EJN 2006). Recognition memory was assessed using the NOR test which is a two-trial test of recognition memory based on the spontaneous preference of rats for novelty (Ennaceur and Delacour, Behav. Brain. Res. 1988; Bianchi et al. EJN. 2006). Briefly, rats are placed in the open field arena for a 3 min period of habituation and then re-placed in their “home” cage for 1 min. The animals are then re-placed in the arena for the familiarization trial (T1) and allowed to explore two identical objects for 5 min. […] The ability of the animals to discriminate between the novel and the familiar object is then expressed as D2-INDEX: [novel object (sec)−familiar object (sec)]/[novel object (sec)+familiar object (sec)] […]

CHI traumatized rats = assay: MRI of ventricular dilatation after Closed Head Injury (CHI); type: in vivo, rat; settings: day 28 post-trauma, 20 mg/kg starting 24 hours post-trauma, compared to the vehicle
Excerpt: The model “Closed Head Injury” (CHI), also commonly known as “weight-drop”, “impact-acceleration” or Marmarou model, allows the induction of TBI on a closed skull and generates diffuse axonal injuries (Holtzer et al 2001). After anesthesia induction, the scalp was incised, a piece of metal (diameter 10 mm, height 3 mm)—designed to protect against skull fracture—was glued to the skull, between the lambda and bregma. The animal was then placed on a foam bed and a cylindrical metallic 230-g weight was dropped from 2 m through a metal tubing onto the disk. At the very moment of the impact, the head of the animal plunged briefly in the foam bed, which leads to an acceleration/deceleration of the brain inside the skull.
To determine lateral ventricle preservation, as well as lesion size (in the CCI model), T2-weighted MRI was performed 28 days after injury (D28). Acquisition was performed on a 7T Bruker AVANCE BIOSPEC—horizontal magnet, with rapid acquisition and relaxation enhancement (RARE).
MRI imaging of rats was performed at day 28 post-trauma. Based on MRI imaging, ventricular dilatation induced by CHI trauma was analyzed in CHI traumatized rats injected from 24 hours post-trauma with sesame oil (CHI-D0), or 3-methoxy-PREG (MAP4343) at 10 mg/kg (CHI-D1) or 20 mg/kg (CHI-D2).

[1] = test system: α-tubulin in rat hippocampus; assay: Microtubule dynamics in rat hippocampus (Tyr/Glu-Tub ratio, Acet-Tub); type: in vivo; settings: 10 mg/kg subcutaneously, single administration
Excerpt: Mean±SEM, n=6 per group. **P<0.01, *P<0.5 vs sesame oil.
The effects produced by neurosteroids were compared with those produced by acute administration of the antidepressant drug fluoxetine (selective serotonin reuptake inhibitor SSRI).
Neurosteroids and 3-Methoxy-PREG (43B) Levels

[2] = molecular target: T1, human progesterone receptor (PR) (Homo sapiens, UniProt P06401); assay: Test of progesterone receptor agonist activity (luciferase transactivation, HEK293T); type: cell-based; settings: 24 hours, increasing amounts
T1 construct: expressed in transfected cells; host or cells: HEK293T cells
T1 sequence (P06401 1-933): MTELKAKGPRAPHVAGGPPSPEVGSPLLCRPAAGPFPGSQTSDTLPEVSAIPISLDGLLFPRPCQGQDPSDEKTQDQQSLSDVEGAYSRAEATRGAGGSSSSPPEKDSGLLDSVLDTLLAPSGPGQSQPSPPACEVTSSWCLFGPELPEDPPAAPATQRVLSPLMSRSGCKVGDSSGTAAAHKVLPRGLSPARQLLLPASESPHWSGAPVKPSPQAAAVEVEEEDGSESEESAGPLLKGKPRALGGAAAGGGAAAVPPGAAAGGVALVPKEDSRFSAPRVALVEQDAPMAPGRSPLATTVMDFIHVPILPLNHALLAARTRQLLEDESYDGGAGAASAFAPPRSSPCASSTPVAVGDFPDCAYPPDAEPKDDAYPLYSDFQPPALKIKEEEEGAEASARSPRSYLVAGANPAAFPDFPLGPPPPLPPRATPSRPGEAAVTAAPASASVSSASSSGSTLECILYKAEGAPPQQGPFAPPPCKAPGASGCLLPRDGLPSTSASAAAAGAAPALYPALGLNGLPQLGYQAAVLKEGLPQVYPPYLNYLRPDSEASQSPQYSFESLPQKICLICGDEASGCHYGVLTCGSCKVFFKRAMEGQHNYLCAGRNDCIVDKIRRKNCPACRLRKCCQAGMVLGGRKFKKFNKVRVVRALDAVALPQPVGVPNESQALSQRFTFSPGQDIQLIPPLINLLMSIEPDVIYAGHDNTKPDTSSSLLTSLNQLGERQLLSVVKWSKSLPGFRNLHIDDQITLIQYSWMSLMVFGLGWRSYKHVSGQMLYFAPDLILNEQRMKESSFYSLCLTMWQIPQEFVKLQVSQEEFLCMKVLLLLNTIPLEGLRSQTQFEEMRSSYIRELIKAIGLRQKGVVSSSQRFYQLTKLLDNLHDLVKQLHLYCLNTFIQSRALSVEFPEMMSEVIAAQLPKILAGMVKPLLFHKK
Method: The main experimental setting used is the following: HEK293T cells were transiently transfected, using calcium phosphate precipitation technology, with expression receptors pSG5hPR (which permits expression of human progesterone receptor (PR)), pFC31-luc (contains the luciferase gene under the control of the MTV promoter, which is in turn activated by binding of a progestin to progesterone receptor) and pcbetagal (which permits expression of betagalactosidase), and cultured during 24 hours with increasing amounts of various compositions: • 1. […] Test of progesterone receptor […] activity: transfected cells were cultured with progesterone (1 nM) and increasing amounts of RU486 (a well-known progesterone receptor antagonist) or 3-methoxy-pregnenolone. • With this setting, a compound with progesterone receptor antagonist activity competes with progesterone for the occupation of progesterone receptor and results in a progressive loss of transactivation activity when the amount of this compound is increased compared to progesterone. Results

CO[C@H]1CC[C@@]2(C)C(=CC[C@H]3[C@@H]4CC[C@H](C(C)=O)[C@@]4(C)CC[C@@H]32)C1 [3-methoxy-PREG, 3β-methoxy-pregna-5-ene-20-one]
discrimination between novel and familiar object (Sprague Dawley rats): discriminated between the novel and the familiar object showing increased memory retention
ventricular dilatation (CHI traumatized rats): significantly decreases the ventricular dilatation
Acet-Tub (stable acetylated α-tubulin) [1]: significantly decreased
Tyr/Glu-Tub ratio ([1]; 3 h): significantly increased
progesterone receptor agonist activity (transactivation) [2]: does not have progesterone receptor agonist activity
